Measured values from patent US10973748B2, “Compositions and methods for lightening skin and reducing hyperpigmentation” (Versitech Limited, priority 2016, dated 2021).

Assays:
[1] = test system: MelanoDerm (Mel-300-A) epidermal equivalents containing melanocytes; assay: Solvable Melanin assay in artificial skin model; format: cell-based, human; settings: 14 days, rapamycin 2.5 μM, 6-CEPN 10 μM, 8-CEPQ 5 μM
Experimental: Epidermal equivalents containing melanocytes (Mel-300-A) were maintained according to the manufacturer's instructions. Mel-300-A tissue was cultured in EPI-100-NMM-113 medium for 14 days. Agents were dissolved in tissue culture medium and changed every other day. The test agents were either (1) rapamycin (2.5 μM), as the positive control in depigmentation, (2) 6-CEPN (10 μM), or (3) 8-CEPQ (5 μM). The concentration of rapamycin used was lower than 6-CEPN and 8-CEPQ, as rapamycin is toxic to cells at higher concentration. Pigmentation of these skin equivalents was compared against treatment of cells with a culture medium only (denoted as “vehicle”). Tissue viability was assessed on day 14 by CCK-8 assay as described in Example 1. On day 14, single tissues were harvested and photographed. The L* parameter was used to evaluate skin lightening or darkening. The lighter the skin, the greater the L* value. ΔL* value was measured by a Chroma Meter CR400 (Konica Minolta) for an evaluation of lightening as a function of time. Three tissues for each treatment were frozen for the Solvable Melanin assay (Bessou-Touya et al., “Chimeric human epidermal reconstructs to study the role of melanocytes and keratinocytes in pigmentation and photoprotection.” Journal of investigative dermatology 111(6):1103-1108 (1998)). Additional tissues were fixed by 10% formanin. […]

[2] = test system: melan-a cells; assay: Melanosome autophagy by fluorescence microscopy; format: cell-based, murine; settings: α-MSH, rapamycin 0.5 μM 24 hrs, 6-CEPN 10 μM, 8-CEPQ 5 μM 72 hrs
Experimental: Melan-a cells (1.5×10^5 cells/well) were seeded on coverslips in 6-well palte. The cells were treated with (1) α-MSH (1 μM) alone for 24 hrs, (2) α-MSH (1 μM) plus rapamycin (0.5 μM) for 24 hrs, (3) α-MSH (1 μM) plus 6-CEPN (10 μM), or (3) α-MSH (1 μM) plus 8-CEPQ (5 μM) for 72 hrs. Culture medium was removed carefully after the cells reached 50%˜70% level of confluence. Cells were stained by microscopy dual detection reagents (autophagy detection kit, Abcam) for 30 mins at 37° C. The stained cells were analyzed by wide-field fluorescence microscopy (60× magnification). Standard FITC filter and DAPI filter were set to image the autophagic signal and the nuclear signal, respectively.

[3] = test system: MelanoDerm (Mel-300-A) epidermal equivalents containing melanocytes; assay: Depigmentation in artificial skin model: brightness and L* value; format: cell-based, human; settings: 6-CEPN 10 μM, 8-CEPQ 5 μM
Experimental: (§1) Epidermal equivalents containing melanocytes (Mel-300-A) were maintained according to the manufacturer's instructions. Mel-300-A tissue was cultured in EPI-100-NMM-113 medium for 14 days. Agents were dissolved in tissue culture medium and changed every other day. The test agents were either (1) rapamycin (2.5 μM), as the positive control in depigmentation, (2) 6-CEPN (10 μM), or (3) 8-CEPQ (5 μM). The concentration of rapamycin used was lower than 6-CEPN and 8-CEPQ, as rapamycin is toxic to cells at higher concentration. Pigmentation of these skin equivalents was compared against treatment of cells with a culture medium only (denoted as “vehicle”). Tissue viability was assessed on day 14 by CCK-8 assay as described in Example 1. On day 14, single tissues were harvested and photographed. The L* parameter was used to evaluate skin lightening or darkening. The lighter the skin, the greater the L* value. ΔL* value was measured by a Chroma Meter CR400 (Konica Minolta) for an evaluation of lightening as a function of time. Three tissues for each treatment were frozen for the Solvable Melanin assay (Bessou-Touya et al., “Chimeric human epidermal reconstructs to study the role of melanocytes and keratinocytes in pigmentation and photoprotection.” Journal of investigative dermatology 111(6):1103-1108 (1998)). Additional tissues were fixed by 10% formanin. For melanin staining in paraffin-embedded tissues, Fontana-Masson silver staining was used as previously detailed (Barbosa et al., “A simple and economical modification of the Masson-Fontana method for staining melanin granules and enterochromaffin cells.” Stain technology 59(4):193-196 (1984)).

[4] = molecular target: T1, tyrosinase (Mus musculus, UniProt P11344); assay: Cellular tyrosinase activity assay (L-DOPA oxidation in cell lysates); format: cell-based, murine; settings: melan-a cells, α-MSH, 72 hrs; 6-CEPN 10 or 20 μM, 8-CEPQ 2.5 or 5 μM
T1 construct: endogenous in cells; host or cells: melan-a cells
T1 sequence (P11344 19-533): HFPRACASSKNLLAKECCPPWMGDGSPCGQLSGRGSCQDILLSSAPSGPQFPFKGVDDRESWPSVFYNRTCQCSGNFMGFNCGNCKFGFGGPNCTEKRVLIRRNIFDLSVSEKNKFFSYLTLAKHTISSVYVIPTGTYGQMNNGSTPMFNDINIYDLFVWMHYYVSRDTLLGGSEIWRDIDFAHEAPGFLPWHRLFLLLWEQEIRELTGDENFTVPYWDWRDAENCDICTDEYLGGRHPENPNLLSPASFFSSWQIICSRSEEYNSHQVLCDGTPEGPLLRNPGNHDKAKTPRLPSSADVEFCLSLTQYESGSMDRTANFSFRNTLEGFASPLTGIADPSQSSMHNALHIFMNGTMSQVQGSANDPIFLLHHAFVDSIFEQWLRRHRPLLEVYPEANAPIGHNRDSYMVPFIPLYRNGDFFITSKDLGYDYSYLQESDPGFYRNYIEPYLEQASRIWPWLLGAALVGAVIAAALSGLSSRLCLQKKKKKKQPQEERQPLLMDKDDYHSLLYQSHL
Experimental: Cellular tyrosinase activity was determined by measuring the oxidation of L-3,4-dihydroxyphenylalanine (L-DOPA) to dopachrome in cell lysates. Melan-a cells (1.5×10^5 cells/well) were plated in 1 mL of culture medium in a 24-well multidishes for at least 24 hrs prior to use. The cells were treated with α-MSH (1 μM) alone or with α-MSH plus different concentrations of testing agents for 72 hrs. The cells were washed with cold PBS and lysed in 900 μL of PBS with 1% Triton X-100. After being freeze-thawed at −80° C. for 30 min followed by 25° C. for 30 min, 100 μL of 10 mM L-DOPA was then added to each well. Following incubation at 37° C. for 1 hr, the absorbance of the agents was measured at 490 nm using Victor X4 Multilabel Plate Reader (PerkinElmer, Mass., USA).

[5] = test system: MelanoDerm (Mel-300-A) epidermal equivalents containing melanocytes; assay: Tissue viability of artificial skin model (CCK-8); format: cell-based, human; settings: whole treatment period (14 days), rapamycin 2.5 μM, 6-CEPN 10 μM, 8-CEPQ 5 μM
Experimental: as §1

[6] = test system: MelanoDerm (Mel-300-A) epidermal equivalents containing melanocytes; assay: Fontana-Masson silver staining of artificial skin model; format: cell-based, human; settings: day 14, rapamycin 2.5 μM, 6-CEPN 10 μM
Experimental: as §1

O=c1c(O)c(-c2ccc(O)c(O)c2)oc2c(/C=C/c3ccccc3)c(O)cc(O)c12 [8-CEPQ, 8-C-(E-phenylethenyl)-quercetin]
amount of melanin in human skin equivalents [1]: significantly inhibited the amount of melanin | melanosome autophagy [2]: induced melanosome autophagy | brightness of the tissues (visual examination) ([3]; 14 days, rapamycin 2.5 μM): increased the brightness of the tissues | L* value vs negative control ([3]; day 14, rapamycin 2.5 μM): increased the L* value | tyrosinase activity [4]: significant inhibition on tyrosinase activity in a dose-dependent manner | cytotoxicity (tissue viability) [5]: without significant cytotoxicity

CO[C@H]1C[C@@H]2CC[C@@H](C)[C@@](O)(O2)C(=O)C(=O)N2CCCC[C@H]2C(=O)O[C@H]([C@H](C)C[C@@H]2CC[C@@H](O)[C@H](OC)C2)CC(=O)[C@H](C)/C=C(\C)[C@@H](O)[C@@H](OC)C(=O)[C@H](C)C[C@H](C)/C=C/C=C/C=C/1C [rapamycin, reference compound]
thickness of basal layer of tissue [6]: thinner than 6-CEPN-treated or non-treated control groups | cytotoxicity (tissue viability) [5]: without significant cytotoxicity
